Measurements: PubChem BioAssay (NCI)
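Protocol summary: plate cells (96-well), add compound at 5 concentrations, incubate 48 h, interpolate endpoints linearly. Here, GI50 denotes the concentration required for 50% inhibition of growth. TGI denotes the concentration required for complete inhibition of growth.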

Experiments:
Assay in all cases: DTP human tumour cell line panel, 48 h
786-0 renal = system: 786-0 renal
A549 NSCLC = system: A549 NSCLC
ACHN renal = system: ACHN renal
BT-549 breast = system: BT-549 breast
CAKI-1 renal = system: CAKI-1 renal
CCRF-CEM leukemia = system: CCRF-CEM leukemia
COLO 205 colon = system: COLO 205 colon
DU-145 prostate = system: DU-145 prostate
HCC-2998 colon = system: HCC-2998 colon
HCT-116 colon = system: HCT-116 colon
HCT-15 colon = system: HCT-15 colon
HL-60(TB) leukemia = system: HL-60(TB) leukemia
HOP-62 NSCLC = system: HOP-62 NSCLC
HS 578T breast = system: HS 578T breast
HT29 colon = system: HT29 colon
IGROV1 ovarian = system: IGROV1 ovarian
K-562 leukemia = system: K-562 leukemia
KM12 colon = system: KM12 colon
LOX IMVI melanoma = system: LOX IMVI melanoma
M14 melanoma = system: M14 melanoma
MALME-3M melanoma = system: MALME-3M melanoma
MCF7 breast = system: MCF7 breast
MDA-MB-231 breast = system: MDA-MB-231 breast
MDA-MB-435 = system: MDA-MB-435
MOLT-4 leukemia = system: MOLT-4 leukemia
NCI-H226 lung = system: NCI-H226 lung
NCI-H23 lung = system: NCI-H23 lung
NCI-H460 lung = system: NCI-H460 lung
NCI-H522 lung = system: NCI-H522 lung
NCI/ADR-RES ovarian = system: NCI/ADR-RES ovarian
OVCAR-3 ovarian = system: OVCAR-3 ovarian
OVCAR-4 ovarian = system: OVCAR-4 ovarian
OVCAR-5 ovarian = system: OVCAR-5 ovarian
OVCAR-8 ovarian = system: OVCAR-8 ovarian
PC-3 prostate = system: PC-3 prostate
RPMI-8226 leukemia = system: RPMI-8226 leukemia
RXF 393 renal = system: RXF 393 renal
SF-268 CNS = system: SF-268 CNS
SF-295 CNS = system: SF-295 CNS
SF-539 CNS = system: SF-539 CNS
SK-MEL-2 melanoma = system: SK-MEL-2 melanoma
SK-MEL-28 melanoma = system: SK-MEL-28 melanoma
SK-MEL-5 melanoma = system: SK-MEL-5 melanoma
SK-OV-3 ovarian = system: SK-OV-3 ovarian
SN12C renal = system: SN12C renal
SNB-19 CNS = system: SNB-19 CNS
SNB-75 CNS = system: SNB-75 CNS
SR leukemia = system: SR leukemia
SW-620 colon = system: SW-620 colon
T-47D breast = system: T-47D breast
U251 CNS = system: U251 CNS
UACC-257 melanoma = system: UACC-257 melanoma
UACC-62 melanoma = system: UACC-62 melanoma
UO-31 renal = system: UO-31 renal

With COc1cc(Cl)cc(-c2nn(-c3cccc(NC(=O)c4cccc(C(F)(F)F)c4)c3)cc2-c2ccncc2)c1 the GI50 (786-0 renal) was 16.7 µM, the TGI (786-0 renal) was greater than 100 µM and the GI50 (A549 NSCLC) was 3.62 µM. It also gave a TGI (A549 NSCLC) greater than 100 µM, a GI50 (ACHN renal) of 7.21 µM and a TGI (ACHN renal) greater than 100 µM. The GI50 (BT-549 breast) was greater than 100 µM, the TGI (BT-549 breast) was greater than 100 µM and the GI50 (CAKI-1 renal) was 3.85 µM. The TGI (CAKI-1 renal) was greater than 100 µM, the GI50 (CCRF-CEM leukemia) was 4.38 µM and the TGI (CCRF-CEM leukemia) was greater than 100 µM. It also gave a GI50 (COLO 205 colon) of 33.7 µM, a TGI (COLO 205 colon) greater than 100 µM and a GI50 (DU-145 prostate) greater than 100 µM. The TGI (DU-145 prostate) was greater than 100 µM, the GI50 (HCC-2998 colon) was 6.66 µM and the TGI (HCC-2998 colon) was greater than 100 µM. The GI50 (HCT-116 colon) was 3.17 µM, the TGI (HCT-116 colon) was greater than 100 µM and the GI50 (HCT-15 colon) was 3.35 µM. The TGI (HCT-15 colon) was greater than 100 µM, the GI50 (HL-60(TB) leukemia) was 45.9 µM and the TGI (HL-60(TB) leukemia) was greater than 100 µM. For the same compound, the GI50 (HOP-62 NSCLC) was greater than 100 µM, the TGI (HOP-62 NSCLC) was greater than 100 µM and the GI50 (HS 578T breast) was greater than 100 µM. It also gave a TGI (HS 578T breast) greater than 100 µM, a GI50 (HT29 colon) of 3.37 µM and a TGI (HT29 colon) greater than 100 µM. It also gave a GI50 (IGROV1 ovarian) greater than 100 µM, a TGI (IGROV1 ovarian) greater than 100 µM and a GI50 (K-562 leukemia) of 4.69 µM. It also gave a TGI (K-562 leukemia) greater than 100 µM, a GI50 (KM12 colon) of 4.53 µM and a TGI (KM12 colon) greater than 100 µM. It also gave a GI50 (LOX IMVI melanoma) of 15.7 µM, a TGI (LOX IMVI melanoma) greater than 100 µM and a GI50 (M14 melanoma) of 6.09 µM. It also gave a TGI (M14 melanoma) greater than 100 µM, a GI50 (MALME-3M melanoma) greater than 100 µM and a TGI (MALME-3M melanoma) greater than 100 µM. The GI50 (MCF7 breast) was 4.17 µM, the TGI (MCF7 breast) was greater than 100 µM and the GI50 (MDA-MB-231 breast) was 1.38 µM. The TGI (MDA-MB-231 breast) was 9.97 µM, the GI50 (MDA-MB-435) was greater than 100 µM and the TGI (MDA-MB-435) was greater than 100 µM. It also gave a GI50 (MOLT-4 leukemia) of 2.78 µM, a TGI (MOLT-4 leukemia) greater than 100 µM and a GI50 (NCI-H226 lung) greater than 100 µM. The TGI (NCI-H226 lung) was greater than 100 µM, the GI50 (NCI-H23 lung) was 6.74 µM and the TGI (NCI-H23 lung) was greater than 100 µM. For the same compound, the GI50 (NCI-H460 lung) was 5.17 µM, the TGI (NCI-H460 lung) was greater than 100 µM and the GI50 (NCI-H522 lung) was 1.99 µM. For the same compound, the TGI (NCI-H522 lung) was greater than 100 µM, the GI50 (NCI/ADR-RES ovarian) was 5.37 µM and the TGI (NCI/ADR-RES ovarian) was greater than 100 µM. For the same compound, the GI50 (OVCAR-3 ovarian) was 7.69 µM, the TGI (OVCAR-3 ovarian) was greater than 100 µM and the GI50 (OVCAR-4 ovarian) was greater than 100 µM. It also gave a TGI (OVCAR-4 ovarian) greater than 100 µM, a GI50 (OVCAR-5 ovarian) greater than 100 µM and a TGI (OVCAR-5 ovarian) greater than 100 µM. The GI50 (OVCAR-8 ovarian) was 6.88 µM, the TGI (OVCAR-8 ovarian) was greater than 100 µM and the GI50 (PC-3 prostate) was 2.71 µM. For the same compound, the TGI (PC-3 prostate) was greater than 100 µM, the GI50 (RPMI-8226 leukemia) was 3.13 µM and the TGI (RPMI-8226 leukemia) was greater than 100 µM. It also gave a GI50 (RXF 393 renal) of 1.87 µM, a TGI (RXF 393 renal) greater than 100 µM and a GI50 (SF-268 CNS) greater than 100 µM. The TGI (SF-268 CNS) was greater than 100 µM, the GI50 (SF-295 CNS) was 3.91 µM and the TGI (SF-295 CNS) was greater than 100 µM. It also gave a GI50 (SF-539 CNS) greater than 100 µM, a TGI (SF-539 CNS) greater than 100 µM and a GI50 (SK-MEL-2 melanoma) of 6.78 µM. The TGI (SK-MEL-2 melanoma) was greater than 100 µM, the GI50 (SK-MEL-28 melanoma) was greater than 100 µM and the TGI (SK-MEL-28 melanoma) was greater than 100 µM. It also gave a GI50 (SK-MEL-5 melanoma) of 5.43 µM, a TGI (SK-MEL-5 melanoma) greater than 100 µM and a GI50 (SK-OV-3 ovarian) greater than 100 µM. The TGI (SK-OV-3 ovarian) was greater than 100 µM, the GI50 (SN12C renal) was greater than 100 µM and the TGI (SN12C renal) was greater than 100 µM. For the same compound, the GI50 (SNB-19 CNS) was greater than 100 µM, the TGI (SNB-19 CNS) was greater than 100 µM and the GI50 (SNB-75 CNS) was 6.62 µM. For the same compound, the TGI (SNB-75 CNS) was greater than 100 µM, the GI50 (SR leukemia) was 2.48 µM and the TGI (SR leukemia) was greater than 100 µM. For the same compound, the GI50 (SW-620 colon) was greater than 100 µM, the TGI (SW-620 colon) was greater than 100 µM and the GI50 (T-47D breast) was 4.69 µM. It also gave a TGI (T-47D breast) greater than 100 µM, a GI50 (U251 CNS) of 5.56 µM and a TGI (U251 CNS) greater than 100 µM. The GI50 (UACC-257 melanoma) was greater than 100 µM, the TGI (UACC-257 melanoma) was greater than 100 µM and the GI50 (UACC-62 melanoma) was 8.04 µM. It also gave a TGI (UACC-62 melanoma) greater than 100 µM, a GI50 (UO-31 renal) of 2.71 µM and a TGI (UO-31 renal) greater than 100 µM.
